The source of these data is article PMC11314561, “Design and Synthesis of Novel Aminoindazole-pyrrolo[2,3-b]pyridine Inhibitors of IKKα That Selectively Perturb Cellular Non-Canonical NF-κB Signalling” (Molecules, 2024).

What all share (experiment): kinase panel
Format in all cases: biochemical

Test [1] deals with Aurora-B(h) (Homo sapiens, UniProt Q96GD4). In a few lines: (§1)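 Values are percent inhibition from kinome-wide profiling of three series compounds across 231 kinases, with a structurally similar analogue tested on only 98 selected kinases.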
The target in test [2] is CDK2/cyclinE(h) (Homo sapiens, UniProt P24941). In outline: as §1
Test [3] addresses CDK5/p25(h) (Homo sapiens, UniProt Q00535). In a few lines: as §1
Test [4] addresses T1, DYRK2(h) (Homo sapiens, UniProt Q92630).
T1 sequence (Q92630 1-601): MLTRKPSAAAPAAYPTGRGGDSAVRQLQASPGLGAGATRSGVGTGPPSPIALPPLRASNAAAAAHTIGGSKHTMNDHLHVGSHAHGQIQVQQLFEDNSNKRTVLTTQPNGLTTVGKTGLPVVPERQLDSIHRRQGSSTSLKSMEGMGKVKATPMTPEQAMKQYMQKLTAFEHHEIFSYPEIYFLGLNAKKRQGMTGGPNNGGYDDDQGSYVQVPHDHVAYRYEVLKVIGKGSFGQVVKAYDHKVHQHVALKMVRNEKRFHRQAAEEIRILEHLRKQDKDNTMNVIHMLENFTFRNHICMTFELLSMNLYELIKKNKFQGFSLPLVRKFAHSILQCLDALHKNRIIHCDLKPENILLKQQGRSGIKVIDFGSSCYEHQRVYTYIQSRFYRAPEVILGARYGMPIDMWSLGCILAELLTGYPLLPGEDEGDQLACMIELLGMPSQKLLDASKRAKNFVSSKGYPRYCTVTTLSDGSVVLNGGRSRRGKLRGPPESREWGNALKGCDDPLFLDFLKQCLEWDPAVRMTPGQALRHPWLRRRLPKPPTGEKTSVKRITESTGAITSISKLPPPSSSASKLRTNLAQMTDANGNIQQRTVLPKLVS
In a few lines:
as §1

Test [5] addresses ErbB4(h) (Homo sapiens, UniProt Q15303). In a few lines: as §1
Test [6] addresses FGFR3(h) (Homo sapiens, UniProt P22607). In outline: as §1
Test [7] addresses T2, GCK(h) (Homo sapiens, UniProt Q12851).
T2 sequence (Q12851 1-820): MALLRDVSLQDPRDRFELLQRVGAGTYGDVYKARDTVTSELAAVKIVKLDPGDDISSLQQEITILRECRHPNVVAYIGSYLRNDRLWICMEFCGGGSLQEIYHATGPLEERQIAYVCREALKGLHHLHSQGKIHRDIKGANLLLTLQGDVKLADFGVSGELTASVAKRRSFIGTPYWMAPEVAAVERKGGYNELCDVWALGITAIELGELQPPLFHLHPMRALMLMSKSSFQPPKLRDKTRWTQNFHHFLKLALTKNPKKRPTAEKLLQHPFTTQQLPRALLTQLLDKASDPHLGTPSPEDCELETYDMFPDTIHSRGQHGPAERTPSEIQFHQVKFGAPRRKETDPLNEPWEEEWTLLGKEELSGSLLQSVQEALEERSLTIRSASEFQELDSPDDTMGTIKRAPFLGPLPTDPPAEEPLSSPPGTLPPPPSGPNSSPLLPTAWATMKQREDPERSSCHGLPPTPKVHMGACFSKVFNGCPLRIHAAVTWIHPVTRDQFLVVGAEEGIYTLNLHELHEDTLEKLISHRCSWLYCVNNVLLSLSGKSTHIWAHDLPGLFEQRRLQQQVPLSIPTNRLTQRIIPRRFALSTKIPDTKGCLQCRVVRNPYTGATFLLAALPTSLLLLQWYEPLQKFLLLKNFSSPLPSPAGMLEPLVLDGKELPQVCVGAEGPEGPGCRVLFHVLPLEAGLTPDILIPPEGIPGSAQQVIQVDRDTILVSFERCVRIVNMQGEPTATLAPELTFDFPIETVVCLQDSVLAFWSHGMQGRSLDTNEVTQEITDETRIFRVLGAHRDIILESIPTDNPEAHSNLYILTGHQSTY
In a few lines:
as §1

Test [8] deals with GSK3β(h) (Homo sapiens, UniProt P49841). In outline:
as §1

Test [9] deals with MARK1(h) (Homo sapiens, UniProt Q9P0L2). In a few lines:
as §1

The target in test [10] is T3, ZAP-70(h) (Homo sapiens, UniProt P43403).
T3 sequence (P43403 1-619): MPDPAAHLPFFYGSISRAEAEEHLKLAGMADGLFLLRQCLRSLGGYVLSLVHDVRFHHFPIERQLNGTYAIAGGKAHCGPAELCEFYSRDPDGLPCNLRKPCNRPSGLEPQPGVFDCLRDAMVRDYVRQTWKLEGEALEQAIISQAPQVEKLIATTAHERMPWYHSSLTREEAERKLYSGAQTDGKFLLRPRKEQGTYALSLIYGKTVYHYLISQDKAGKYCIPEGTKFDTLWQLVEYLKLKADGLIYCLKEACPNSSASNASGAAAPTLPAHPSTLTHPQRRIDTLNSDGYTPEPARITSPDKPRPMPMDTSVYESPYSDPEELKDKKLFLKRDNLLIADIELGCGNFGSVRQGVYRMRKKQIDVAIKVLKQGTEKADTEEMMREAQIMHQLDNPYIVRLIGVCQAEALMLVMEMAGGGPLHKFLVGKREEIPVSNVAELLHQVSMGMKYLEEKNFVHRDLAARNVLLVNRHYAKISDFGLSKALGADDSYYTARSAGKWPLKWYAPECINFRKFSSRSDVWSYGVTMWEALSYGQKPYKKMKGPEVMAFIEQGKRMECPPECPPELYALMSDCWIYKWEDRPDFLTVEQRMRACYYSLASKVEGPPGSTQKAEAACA
In outline: as §1

The target in test [11] is ZIPK(h) (Homo sapiens, UniProt O43293). In outline:
as §1

Sequence of MARK1(h) (Q9P0L2 whole entry): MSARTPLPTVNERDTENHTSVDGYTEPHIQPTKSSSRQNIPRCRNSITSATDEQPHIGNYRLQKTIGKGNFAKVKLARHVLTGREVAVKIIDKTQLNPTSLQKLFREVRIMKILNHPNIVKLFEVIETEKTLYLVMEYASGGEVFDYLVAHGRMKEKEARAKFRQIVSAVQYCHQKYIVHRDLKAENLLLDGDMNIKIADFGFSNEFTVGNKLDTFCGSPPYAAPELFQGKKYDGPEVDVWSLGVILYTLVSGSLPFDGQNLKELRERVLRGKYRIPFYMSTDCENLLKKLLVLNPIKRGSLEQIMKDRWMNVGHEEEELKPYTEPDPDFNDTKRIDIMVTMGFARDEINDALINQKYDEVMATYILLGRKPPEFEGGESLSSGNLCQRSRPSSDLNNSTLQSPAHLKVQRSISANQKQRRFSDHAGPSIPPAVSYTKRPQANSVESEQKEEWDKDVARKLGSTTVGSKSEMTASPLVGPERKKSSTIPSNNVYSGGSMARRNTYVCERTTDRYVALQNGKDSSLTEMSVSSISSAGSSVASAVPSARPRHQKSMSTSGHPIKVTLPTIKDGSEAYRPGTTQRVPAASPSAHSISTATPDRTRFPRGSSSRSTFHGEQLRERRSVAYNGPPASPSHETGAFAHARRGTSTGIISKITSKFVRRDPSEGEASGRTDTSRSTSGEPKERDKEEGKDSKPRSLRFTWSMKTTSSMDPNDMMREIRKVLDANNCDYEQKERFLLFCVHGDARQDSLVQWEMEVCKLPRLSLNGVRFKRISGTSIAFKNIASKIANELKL
Sequence of CDK5/p25(h) (Q00535 whole entry): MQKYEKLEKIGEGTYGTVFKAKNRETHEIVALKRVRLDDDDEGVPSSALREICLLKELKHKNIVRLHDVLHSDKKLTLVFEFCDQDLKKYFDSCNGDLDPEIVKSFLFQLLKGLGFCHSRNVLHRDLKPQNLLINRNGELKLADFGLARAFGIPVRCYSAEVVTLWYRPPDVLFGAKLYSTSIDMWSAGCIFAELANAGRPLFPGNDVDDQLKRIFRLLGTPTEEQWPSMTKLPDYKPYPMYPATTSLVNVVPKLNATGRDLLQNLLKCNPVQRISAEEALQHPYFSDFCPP
Sequence of CDK5/p25(h) (Q15078 99-307 partner limits assumed): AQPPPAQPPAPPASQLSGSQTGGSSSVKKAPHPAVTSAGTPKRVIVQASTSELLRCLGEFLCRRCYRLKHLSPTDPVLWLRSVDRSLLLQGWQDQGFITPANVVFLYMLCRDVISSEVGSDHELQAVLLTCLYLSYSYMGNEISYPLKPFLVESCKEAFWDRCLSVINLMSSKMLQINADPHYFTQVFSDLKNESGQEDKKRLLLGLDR
Sequence of Aurora-B(h) (Q96GD4 whole entry): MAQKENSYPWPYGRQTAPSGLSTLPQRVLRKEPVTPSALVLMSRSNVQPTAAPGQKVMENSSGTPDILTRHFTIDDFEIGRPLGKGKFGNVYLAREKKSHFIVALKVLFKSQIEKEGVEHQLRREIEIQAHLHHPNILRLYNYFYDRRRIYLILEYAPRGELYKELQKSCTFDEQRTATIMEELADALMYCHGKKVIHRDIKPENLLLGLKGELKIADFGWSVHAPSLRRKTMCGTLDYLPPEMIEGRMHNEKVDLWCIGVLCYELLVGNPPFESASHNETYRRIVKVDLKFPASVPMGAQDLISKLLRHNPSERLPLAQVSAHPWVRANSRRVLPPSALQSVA
Sequence of GSK3β(h) (P49841 whole entry): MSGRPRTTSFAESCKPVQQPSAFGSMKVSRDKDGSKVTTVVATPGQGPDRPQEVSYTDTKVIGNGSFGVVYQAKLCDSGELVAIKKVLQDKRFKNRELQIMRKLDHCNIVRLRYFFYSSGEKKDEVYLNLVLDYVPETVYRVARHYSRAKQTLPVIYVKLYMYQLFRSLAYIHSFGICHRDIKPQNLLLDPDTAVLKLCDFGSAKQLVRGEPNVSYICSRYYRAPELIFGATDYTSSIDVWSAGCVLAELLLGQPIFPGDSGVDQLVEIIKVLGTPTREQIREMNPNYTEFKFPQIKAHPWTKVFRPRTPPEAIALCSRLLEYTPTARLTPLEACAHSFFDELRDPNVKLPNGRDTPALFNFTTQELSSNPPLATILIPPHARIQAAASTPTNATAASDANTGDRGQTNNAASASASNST
Sequence of ZIPK(h) (O43293 whole entry): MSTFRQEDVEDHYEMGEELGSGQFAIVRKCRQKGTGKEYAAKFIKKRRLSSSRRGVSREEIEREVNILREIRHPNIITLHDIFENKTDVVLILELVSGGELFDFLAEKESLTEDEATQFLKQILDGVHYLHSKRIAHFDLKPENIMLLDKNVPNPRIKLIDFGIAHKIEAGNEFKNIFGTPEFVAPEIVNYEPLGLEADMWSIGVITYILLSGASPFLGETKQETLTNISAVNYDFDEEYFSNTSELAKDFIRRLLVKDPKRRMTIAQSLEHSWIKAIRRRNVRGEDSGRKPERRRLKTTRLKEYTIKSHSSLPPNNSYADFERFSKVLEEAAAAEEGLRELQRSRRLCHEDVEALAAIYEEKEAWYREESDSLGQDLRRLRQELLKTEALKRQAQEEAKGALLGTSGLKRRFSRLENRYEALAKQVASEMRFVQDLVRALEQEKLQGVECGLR
Sequence of FGFR3(h) (P22607 23-806): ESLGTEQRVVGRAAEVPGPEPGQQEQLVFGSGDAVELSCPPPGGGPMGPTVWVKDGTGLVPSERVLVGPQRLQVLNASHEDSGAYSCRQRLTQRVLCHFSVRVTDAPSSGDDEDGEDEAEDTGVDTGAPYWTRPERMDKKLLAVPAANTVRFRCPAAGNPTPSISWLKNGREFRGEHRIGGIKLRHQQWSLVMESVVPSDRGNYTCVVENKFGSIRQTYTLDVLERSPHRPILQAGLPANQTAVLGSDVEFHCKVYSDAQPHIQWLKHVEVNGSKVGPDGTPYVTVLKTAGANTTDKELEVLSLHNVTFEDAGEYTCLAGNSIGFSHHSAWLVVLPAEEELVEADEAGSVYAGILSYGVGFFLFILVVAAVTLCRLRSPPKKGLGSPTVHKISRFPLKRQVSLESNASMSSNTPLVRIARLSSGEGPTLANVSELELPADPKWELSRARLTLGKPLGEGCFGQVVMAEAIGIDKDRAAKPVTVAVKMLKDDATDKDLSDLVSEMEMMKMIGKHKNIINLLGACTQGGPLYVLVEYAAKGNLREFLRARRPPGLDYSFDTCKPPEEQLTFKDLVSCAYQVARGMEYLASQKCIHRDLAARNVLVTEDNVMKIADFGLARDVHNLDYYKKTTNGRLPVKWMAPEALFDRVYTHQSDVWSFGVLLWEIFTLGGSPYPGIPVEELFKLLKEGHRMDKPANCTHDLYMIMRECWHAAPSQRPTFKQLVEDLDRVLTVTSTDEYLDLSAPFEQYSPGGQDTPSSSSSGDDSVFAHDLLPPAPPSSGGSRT
Sequence of ErbB4(h) (Q15303 26-1308): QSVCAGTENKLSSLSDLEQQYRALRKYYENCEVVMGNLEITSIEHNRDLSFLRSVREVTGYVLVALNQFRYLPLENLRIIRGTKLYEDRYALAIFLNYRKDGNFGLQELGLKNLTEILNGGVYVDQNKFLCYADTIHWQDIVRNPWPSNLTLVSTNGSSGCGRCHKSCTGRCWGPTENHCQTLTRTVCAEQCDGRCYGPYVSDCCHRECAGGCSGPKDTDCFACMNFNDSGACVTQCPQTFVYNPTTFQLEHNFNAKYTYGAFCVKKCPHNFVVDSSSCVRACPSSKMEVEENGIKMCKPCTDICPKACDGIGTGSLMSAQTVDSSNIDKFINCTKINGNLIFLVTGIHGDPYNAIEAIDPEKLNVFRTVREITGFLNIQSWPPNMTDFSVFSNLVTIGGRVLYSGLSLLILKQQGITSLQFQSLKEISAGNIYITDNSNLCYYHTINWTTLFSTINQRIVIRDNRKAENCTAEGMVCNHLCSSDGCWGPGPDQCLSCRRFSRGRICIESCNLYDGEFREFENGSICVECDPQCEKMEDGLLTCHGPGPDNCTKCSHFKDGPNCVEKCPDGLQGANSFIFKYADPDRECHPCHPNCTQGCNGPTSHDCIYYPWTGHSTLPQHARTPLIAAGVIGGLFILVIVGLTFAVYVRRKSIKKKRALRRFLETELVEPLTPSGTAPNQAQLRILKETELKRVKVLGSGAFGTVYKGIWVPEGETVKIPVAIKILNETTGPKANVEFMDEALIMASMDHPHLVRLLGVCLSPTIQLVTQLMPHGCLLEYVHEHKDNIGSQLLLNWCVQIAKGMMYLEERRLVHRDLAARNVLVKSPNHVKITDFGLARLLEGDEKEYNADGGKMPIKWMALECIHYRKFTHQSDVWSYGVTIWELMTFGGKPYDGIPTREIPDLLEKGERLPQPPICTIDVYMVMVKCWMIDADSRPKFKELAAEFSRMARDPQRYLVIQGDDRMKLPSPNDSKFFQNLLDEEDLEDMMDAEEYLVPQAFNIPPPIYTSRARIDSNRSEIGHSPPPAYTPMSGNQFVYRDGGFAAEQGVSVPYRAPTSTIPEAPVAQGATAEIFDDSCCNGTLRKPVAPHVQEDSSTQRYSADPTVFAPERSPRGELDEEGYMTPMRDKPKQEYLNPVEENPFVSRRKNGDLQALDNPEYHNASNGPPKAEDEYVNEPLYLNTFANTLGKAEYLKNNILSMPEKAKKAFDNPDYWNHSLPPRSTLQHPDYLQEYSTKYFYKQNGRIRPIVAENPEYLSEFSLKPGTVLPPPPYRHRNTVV

The inhibition is the drop in the measured response relative to a control, in per cent. `Nc1n[nH]c2ccc(-c3ccnc4[nH]c(-c5ccnc(OCc6ccccc6)c5)cc34)cc12` [Compound 6g [SU1349]]: the inhibition at 1 µM in test [1] is 71%; in [2], 29%; in [3], 92%; in test [4] it was 9%; in test [5], -5%; in test [6] it was 0%. Moreover, the inhibition at 1 µM in test [7] was 71%; in test [8], 5%; in test [9], 17%; in test [10], -22%; in test [11] it was 1%.
Take `Nc1n[nH]c2ccc(-c3ccnc4[nH]c(-c5cccc(OCc6ccccc6)c5)cc34)cc12` [Compound 5r [SU1261]]: the inhibition at 1 µM in [1] was 92%; in test [2], 37%; in test [3], 96%; in [4] it was 14%; in test [5], 14%; in test [6], 41%. In addition, the inhibition at 1 µM in test [7] is 86%; in test [8], 57%; in test [9], 28%; in test [10], -27%; in [11], 0%.
Consider `Nc1n[nH]c2ccc(-c3ccnc4[nH]c(-c5ccccc5)cc34)cc12` [Compound 4], for which the inhibition at 1 µM in test [1] was determined as 99%; in test [2] it was 86%; in test [3], 101%; in test [4], 43%; in [5], 20%; in test [6], 77%. Further, the inhibition at 1 µM was 98% in test [7]; 92% in test [8]; 84% in test [9]; -8% in test [10]; -7% in test [11].
